{"source": "patent US20240293405A1", "about": "“(1H-PYRROLO[2,3-B]PYRIDIN-1-YL)PYRIMIDIN-2-YL-AMINO-PHENYL-ACRYLAMIDE INHIBITORS OF EGFR FOR USE IN THE TREATMENT OF BRAIN TUMORS” (Dana-Farber Cancer Institute, Inc., priority 2021, published 2024)", "key": {"[1]": {"test": "Respiratory rate", "format": "in vivo", "conditions": "dog, PO up to 100 mg/kg"}, "[2]": {"test_system": "U251-EGFRvIII cells", "test": "Viability/proliferation of U251-EGFRvIII cells", "format": "cell-based, human", "method": "(§1) Cells were seeded in 96-well plates at a density of 1,000 cells per well and treated with two-fold serial dilutions of compounds with a starting concentration of 20 μM. Cell viability was assessed after three days of treatment by CellTiter-Glo (Promega). Curve fitting analysis and IC50 value determination were performed using GraphPad Prism 8.\n(§2) In parallel, the conventional human GBM U251 cell line was used as a surrogate model for both in vitro and in vivo studies. U251 cells were engineered to stably express EGFRvIII (U251-EGFRvIII) via retroviral-mediated gene transfer."}, "[3]": {"molecular_target": "T1, CYP3A4-T (Homo sapiens, UniProt P08684)", "T1 construct": "from tissue; host or cells: human liver microsomes", "test": "CYP450 inhibition, human liver microsomes", "format": "in vitro ADME", "from_the_text": "Metabolism, inhibition and induction were not observed with other CYPs. Potential DDI interactions exist with drugs that are inhibitors of CYP3A4-T or those metabolized by CYP3A4/3A5; these DDI risks will be better defined once there are human pharmacokinetics (PK) data."}, "[4]": {"test_system": "BT179 cells", "test": "Cell viability, patient-derived GBM line BT179", "conditions": "Homo sapiens, 72 h", "experimental": "Primary human glioblastoma lines BT112, BT179 and BT333 were maintained in NeuroCult proliferation medium (human) (StemCell Technologies) with 20 ng/ml EGF, 10 ng/ml FGF and 0.0002% Heparin."}, "[5]": {"test_system": "P-gp, Bcrp", "test": "Efflux liability", "format": "in vitro ADME", "conditions": "Compound 1, own data", "from_the_text": "Data obtained in a previously published report on brain penetration of EGFR TKIs in GMB was compared to brain penetrance data described herein (Table 5). […] Each of these drugs, with the exception of vizimpro, appeared to be a substrate of P-gp and Bcrp (efflux transporter proteins)."}, "[6]": {"molecular_target": "T2, EGFRvIII (Homo sapiens, UniProt P00533, DELINS30-297G)", "T2 sequence (P00533 with tags, fused parts or gaps DELINS30-297G)": "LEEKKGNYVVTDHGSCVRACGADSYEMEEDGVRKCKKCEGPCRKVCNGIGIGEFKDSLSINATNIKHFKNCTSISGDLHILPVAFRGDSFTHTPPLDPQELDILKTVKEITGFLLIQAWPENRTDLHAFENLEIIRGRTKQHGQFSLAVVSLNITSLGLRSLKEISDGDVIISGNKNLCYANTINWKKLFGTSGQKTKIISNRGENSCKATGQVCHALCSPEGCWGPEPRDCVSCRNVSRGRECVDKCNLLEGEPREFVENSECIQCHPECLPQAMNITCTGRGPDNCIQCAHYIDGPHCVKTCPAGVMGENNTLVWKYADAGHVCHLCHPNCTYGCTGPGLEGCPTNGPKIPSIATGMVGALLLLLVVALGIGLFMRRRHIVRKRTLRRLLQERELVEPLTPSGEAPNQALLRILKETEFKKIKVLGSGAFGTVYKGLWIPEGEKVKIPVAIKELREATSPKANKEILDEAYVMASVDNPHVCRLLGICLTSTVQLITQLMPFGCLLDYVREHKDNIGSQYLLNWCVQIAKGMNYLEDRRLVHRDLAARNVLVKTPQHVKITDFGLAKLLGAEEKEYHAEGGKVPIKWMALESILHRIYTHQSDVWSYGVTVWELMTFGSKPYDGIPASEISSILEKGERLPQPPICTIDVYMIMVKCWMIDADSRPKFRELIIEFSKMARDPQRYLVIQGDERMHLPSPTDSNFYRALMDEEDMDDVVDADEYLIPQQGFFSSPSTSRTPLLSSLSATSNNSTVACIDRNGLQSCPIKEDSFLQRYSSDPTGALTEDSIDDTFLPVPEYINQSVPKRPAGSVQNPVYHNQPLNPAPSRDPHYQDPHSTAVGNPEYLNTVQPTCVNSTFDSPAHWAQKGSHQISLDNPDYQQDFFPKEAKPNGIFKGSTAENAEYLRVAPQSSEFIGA", "test": "EGFRvIII phosphorylation in 293-EGFRvIII cells (western blot)", "format": "cell-based", "design": "expressed in transfected cells", "conditions": "6 hours, read-out: IC50 on EGFRvIII phosphorylation (pEGFRvIII1068)"}, "[7]": {"molecular_target": "ALK (Homo sapiens, UniProt Q9UM73)", "test": "Kinase binding constant (Kd)", "method": "(§3) EGFR amplifications and/or mutations are common in GBM, estimated to occur in over 50% of patients.\n(§4) Compound 1 and Compound 2 (major metabolite) were evaluated in a panel of 468 human kinases and disease relevant mutant variants. Compound 1 and Compound 2 bound to few non-mutant kinases at <1% of control. […] While there is some variability between Compound 1 and Compound 2, it is clear that both compounds are very effective at binding to a large panel of mutant kinases. […] Binding constant to wild type EGFR was 4.9 nM."}, "[8]": {"molecular_target": "PDGFRA (Homo sapiens, UniProt P16234)", "test": "Kinase binding constant (Kd)", "method": "as §3, §4"}, "[9]": {"molecular_target": "PDGFRB (Homo sapiens, UniProt P09619)", "sequence (P09619 33-1106)": "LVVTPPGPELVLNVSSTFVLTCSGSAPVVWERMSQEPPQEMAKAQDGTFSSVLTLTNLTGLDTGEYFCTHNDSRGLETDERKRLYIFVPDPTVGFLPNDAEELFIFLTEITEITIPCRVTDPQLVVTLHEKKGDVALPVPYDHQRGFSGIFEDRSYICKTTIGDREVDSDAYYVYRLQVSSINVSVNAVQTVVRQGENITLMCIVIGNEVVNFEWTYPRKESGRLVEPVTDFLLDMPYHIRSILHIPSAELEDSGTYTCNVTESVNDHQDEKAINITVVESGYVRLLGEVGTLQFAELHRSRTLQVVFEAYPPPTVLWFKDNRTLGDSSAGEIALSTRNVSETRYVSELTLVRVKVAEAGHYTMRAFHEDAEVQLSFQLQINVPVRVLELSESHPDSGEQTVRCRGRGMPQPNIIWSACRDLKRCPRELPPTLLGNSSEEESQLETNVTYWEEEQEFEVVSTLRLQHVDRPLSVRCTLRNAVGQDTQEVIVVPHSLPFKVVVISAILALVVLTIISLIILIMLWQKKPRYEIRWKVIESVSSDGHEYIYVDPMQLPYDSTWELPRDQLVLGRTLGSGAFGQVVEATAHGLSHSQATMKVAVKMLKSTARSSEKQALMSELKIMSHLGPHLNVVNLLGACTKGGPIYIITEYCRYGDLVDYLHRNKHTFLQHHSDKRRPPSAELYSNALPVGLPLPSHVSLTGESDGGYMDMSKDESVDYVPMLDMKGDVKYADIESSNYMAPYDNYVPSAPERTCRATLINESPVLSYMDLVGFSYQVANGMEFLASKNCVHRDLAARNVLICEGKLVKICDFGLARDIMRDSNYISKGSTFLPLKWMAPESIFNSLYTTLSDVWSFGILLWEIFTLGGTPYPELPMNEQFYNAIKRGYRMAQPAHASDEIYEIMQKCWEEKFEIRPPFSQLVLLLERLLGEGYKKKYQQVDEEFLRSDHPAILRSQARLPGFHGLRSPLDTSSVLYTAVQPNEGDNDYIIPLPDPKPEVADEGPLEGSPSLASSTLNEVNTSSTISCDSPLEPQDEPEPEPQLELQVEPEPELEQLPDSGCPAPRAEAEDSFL", "test": "Kinase binding constant (Kd)", "method": "as §3, §4"}, "[10]": {"test_system": "three primary patient-derived GBM cell lines harboring EGFR amplification and/or mutations", "test": "Cell viability, three patient-derived GBM cell lines (summary)", "format": "cell-based", "conditions": "Homo sapiens; neurosphere culture; read-out: IC50 of cell viability, range over three patient cell lines", "method": "as §1"}, "[11]": {"molecular_target": "T3, human BCRP (Homo sapiens, UniProt Q9UNQ0)", "T3 construct": "endogenous in cells; host or cells: Caco-2 cells", "test": "BCRP inhibition (rosuvastatin transport, Caco-2 cells)", "format": "in vitro ADME", "conditions": "read-out: apparent IC50, rosuvastatin transport via human BCRP (converted)", "from_the_text": "(§5) Further understanding of DDI risk will await definition of Phase 2 doses and exposures."}, "[12]": {"molecular_target": "T2, EGFRvIII", "test": "EGFRvIII phosphorylation in U251-EGFRvIII cells (western blot)", "format": "cell-based", "design": "expressed in transfected cells; host or cells: U251 (human GBM cell line), retroviral transduction", "conditions": "20 hours, read-out: IC50 on EGFRvIII phosphorylation (pEGFRvIII1068)", "from_the_text": "Anti-a-Tubulin antibody was purchased from Sigma.\nas §2"}, "[13]": {"test": "Brain and plasma exposure after single oral dose", "format": "in vivo, Sprague Dawley rats", "conditions": "own data, oral dosing in rats", "from_the_text": "Genfitinib concentrations were quantitated by LC-MS/MS from brain and plasma from Group 1 animals."}, "[14]": {"test": "In vivo metabolite identification", "design": "species or system rat, dog and monkey", "from_the_text": "In in vivo studies in rat, dog and monkey, 35 metabolites were identified. The major circulating compound in all species was parent compound; parent was also a major component in rat feces. Compound 2, demethylated metabolite, was a major active metabolite in all species in plasma and in rat feces. M34, glutathione conjugation and hydrolysis and acetylation metabolite, was a major metabolite in rat urine. Compound 1 was extensively metabolized during excretion with 31 metabolites in rat urine and 32 metabolites in rat feces."}, "[15]": {"test_system": "PC9GR4 cells (Ex19del/T790M)", "conditions": "PC9GR4 cell line; Wang 2020; read-out: IC50, growth inhibition; cited from earlier work"}, "[16]": {"molecular_target": "T4, P-gp (Homo sapiens, UniProt P08183)", "T4 construct": "expressed in transfected cells; host or cells: MDCKII-MDR1 cells", "T4 sequence (P08183 whole entry)": "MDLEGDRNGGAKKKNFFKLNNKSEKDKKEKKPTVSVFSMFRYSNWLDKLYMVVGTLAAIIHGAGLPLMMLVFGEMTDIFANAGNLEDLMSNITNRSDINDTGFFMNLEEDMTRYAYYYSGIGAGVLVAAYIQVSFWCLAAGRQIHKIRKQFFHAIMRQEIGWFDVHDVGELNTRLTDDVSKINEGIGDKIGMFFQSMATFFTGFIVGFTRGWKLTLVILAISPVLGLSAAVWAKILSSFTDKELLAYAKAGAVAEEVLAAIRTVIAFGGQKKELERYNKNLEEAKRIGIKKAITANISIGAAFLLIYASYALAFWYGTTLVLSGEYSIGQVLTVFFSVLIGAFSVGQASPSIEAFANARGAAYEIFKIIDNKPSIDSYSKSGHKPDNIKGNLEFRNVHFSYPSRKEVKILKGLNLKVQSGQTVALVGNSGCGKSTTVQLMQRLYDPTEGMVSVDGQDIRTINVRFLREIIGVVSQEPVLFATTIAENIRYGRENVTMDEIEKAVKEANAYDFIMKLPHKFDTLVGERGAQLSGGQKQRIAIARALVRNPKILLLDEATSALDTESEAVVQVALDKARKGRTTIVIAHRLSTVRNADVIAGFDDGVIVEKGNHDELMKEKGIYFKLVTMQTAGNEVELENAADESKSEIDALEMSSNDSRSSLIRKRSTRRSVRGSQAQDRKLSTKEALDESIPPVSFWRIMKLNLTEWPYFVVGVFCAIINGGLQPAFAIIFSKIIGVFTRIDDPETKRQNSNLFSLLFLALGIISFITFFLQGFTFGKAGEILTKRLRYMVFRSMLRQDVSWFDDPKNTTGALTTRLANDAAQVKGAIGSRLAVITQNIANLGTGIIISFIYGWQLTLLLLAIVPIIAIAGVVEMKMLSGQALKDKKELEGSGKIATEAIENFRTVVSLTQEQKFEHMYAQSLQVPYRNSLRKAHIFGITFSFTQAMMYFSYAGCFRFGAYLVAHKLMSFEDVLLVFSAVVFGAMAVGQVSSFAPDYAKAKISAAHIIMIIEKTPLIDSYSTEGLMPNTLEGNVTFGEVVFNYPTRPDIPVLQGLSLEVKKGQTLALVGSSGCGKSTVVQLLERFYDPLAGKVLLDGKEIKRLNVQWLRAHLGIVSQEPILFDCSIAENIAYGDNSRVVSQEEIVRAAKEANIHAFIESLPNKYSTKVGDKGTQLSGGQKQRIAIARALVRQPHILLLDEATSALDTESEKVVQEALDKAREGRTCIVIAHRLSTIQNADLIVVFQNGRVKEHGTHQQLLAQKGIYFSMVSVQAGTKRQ", "test": "P-glycoprotein inhibition (digoxin transport)", "format": "in vitro ADME", "from_the_text": "as §5"}, "[17]": {"molecular_target": "hERG (Homo sapiens, UniProt Q12809)", "sequence (Q12809 whole entry)": "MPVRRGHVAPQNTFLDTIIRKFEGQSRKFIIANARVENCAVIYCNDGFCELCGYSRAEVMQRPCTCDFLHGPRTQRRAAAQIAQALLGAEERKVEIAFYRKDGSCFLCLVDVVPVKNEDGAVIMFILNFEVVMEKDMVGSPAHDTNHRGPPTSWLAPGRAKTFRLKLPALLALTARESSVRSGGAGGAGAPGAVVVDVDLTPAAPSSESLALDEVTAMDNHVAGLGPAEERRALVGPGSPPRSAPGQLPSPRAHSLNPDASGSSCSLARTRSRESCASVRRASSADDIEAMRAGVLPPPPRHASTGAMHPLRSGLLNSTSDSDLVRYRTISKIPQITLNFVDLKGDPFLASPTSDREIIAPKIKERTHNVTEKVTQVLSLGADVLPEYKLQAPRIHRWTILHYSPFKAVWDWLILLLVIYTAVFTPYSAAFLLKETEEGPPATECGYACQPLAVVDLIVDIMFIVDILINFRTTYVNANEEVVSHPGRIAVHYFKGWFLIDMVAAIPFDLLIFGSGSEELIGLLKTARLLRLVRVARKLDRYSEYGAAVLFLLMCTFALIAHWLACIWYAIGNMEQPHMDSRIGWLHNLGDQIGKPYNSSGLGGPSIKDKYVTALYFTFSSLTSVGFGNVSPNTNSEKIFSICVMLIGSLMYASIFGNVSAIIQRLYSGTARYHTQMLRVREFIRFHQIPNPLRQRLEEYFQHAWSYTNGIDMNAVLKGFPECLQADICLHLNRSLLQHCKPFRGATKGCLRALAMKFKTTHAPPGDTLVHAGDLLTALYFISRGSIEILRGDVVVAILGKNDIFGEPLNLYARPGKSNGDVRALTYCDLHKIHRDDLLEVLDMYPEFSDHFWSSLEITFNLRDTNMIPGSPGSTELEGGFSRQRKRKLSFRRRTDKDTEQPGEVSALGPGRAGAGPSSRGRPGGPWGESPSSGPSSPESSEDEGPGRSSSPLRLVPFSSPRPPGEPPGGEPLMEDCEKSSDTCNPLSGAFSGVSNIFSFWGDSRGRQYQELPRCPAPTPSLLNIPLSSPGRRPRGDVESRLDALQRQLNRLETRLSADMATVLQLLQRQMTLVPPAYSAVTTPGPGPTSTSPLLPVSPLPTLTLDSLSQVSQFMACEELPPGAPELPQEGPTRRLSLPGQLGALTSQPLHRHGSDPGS", "test": "hERG assay (HEK cells)", "format": "cell-based", "method": "Compound 1 and/or Compound 2 (active/major metabolite) were evaluated for off-target activity in a large panel of receptors and ion channels, including a human ether-i-go-go-related gene (hERG) assay. Compound 1 was assessed comprehensively in Good Laboratory Practice (GLP) safety pharmacology studies, including studies of cardiovascular, respiratory and central nervous system function."}}, "note": "Where “and” joins values, the source holds several entries; their conditions need not be identical. Equal entries are not always repeated. Where two headings read alike, the source gives them in different places.", "data": [{"smiles": "C=CC(=O)Nc1cc(Nc2nccc(-n3ccc4cccnc43)n2)c(OC)cc1N(C)CCN(C)C", "note": "[Compound 1, N-(5-((4-(1H-pyrrolo[2,3-b]pyridin-1-yl)pyrimidin-2-yl)amino)-2-((2-(dimethylamino)ethyl)(methyl)amino)-4-methoxyphenyl)acrylamide]", "values": [{"measurement": "effects on respiratory rate", "setting": "[1]", "value": "no adverse effects on respiratory rate"}, {"measurement": "IC50", "setting": "[2]; Homo sapiens, values of the text and Table 9, read-out: IC50, viability of U251-EGFRvIII cells", "value": 1520, "unit": "nM"}, {"measurement": "IC50", "setting": "[2]; Homo sapiens, Table 2, read-out: IC50 on U251-EGFRvIII cell proliferation", "value": 1480, "unit": "nM"}, {"measurement": "cell survival, fold less than that of erlotinib", "setting": "[2]; U251-EGFRvIII cells", "value": 9, "unit": "fold"}, {"measurement": "cell survival, fold less than that of gefitinib", "setting": "[2]; U251-EGFRvIII cells", "value": 13, "unit": "fold"}, {"measurement": "IC50", "setting": "[2]; values of the text and Table 9, read-out: IC50, viability of U251-EGFRvIII cells", "value": 1500, "unit": "nM"}, {"measurement": "IC50", "setting": "[3]", "value": 4890, "unit": "nM"}, {"measurement": "IC50", "setting": "[4]", "value": 893, "unit": "nM"}, {"measurement": "Efflux Liability", "setting": "[5]", "value": "Not a substrate"}, {"measurement": "IC50", "setting": "[6]", "value": 190, "unit": "nM"}, {"measurement": "Kd", "setting": "[7]", "value": 250, "unit": "nM"}, {"measurement": "Kd", "setting": "[8]", "value": 1500, "unit": "nM"}, {"measurement": "Kd", "setting": "[9]", "value": 5200, "unit": "nM"}, {"measurement": "IC50", "setting": "[10]", "value": "890 to 3280", "unit": "nM"}, {"measurement": "IC50", "setting": "[11]", "value": 3020, "unit": "nM"}, {"measurement": "IC50", "setting": "[12]", "value": "174 nM and 170 nM"}, {"measurement": "Brain Penetration (% of B/P ratio in preclinical model)", "setting": "[13]", "value": "2830% (oral)"}, {"measurement": "number of metabolites in rat feces", "setting": "[14]; in vivo", "value": 32}, {"measurement": "number of metabolites in rat urine", "setting": "[14]; in vivo", "value": 31}, {"measurement": "number of metabolites identified in vivo", "setting": "[14]; rat, dog and monkey", "value": 35}, {"measurement": "IC50", "setting": "[15]", "value": 3.66, "unit": "nM"}, {"measurement": "P-gp inhibition", "setting": "[16]", "value": "No P-gp inhibition"}, {"measurement": "IC50", "setting": "[16]; read-out: IC50, P-gp mediated transport of digoxin", "value": "> 30000", "unit": "nM"}, {"measurement": "IC50", "setting": "[17]", "value": 1900, "unit": "nM"}, {"measurement": "hERG IC100", "setting": "[17]", "value": "~30", "unit": "µM"}]}]}
